Common to all, as to assay type: biochemical
For experiment [1], the target named is T1, NANOLUC® Luciferase (Oplophorus gracilirostris, UniProt Q9GV45, A31E/A60N/A81I/F95D/I117V/K70R/L54V/L99Q/M102K/N193R/P142E/Q151K/Q38R/Q45L/V71I/Y165I). Briefly: Enzyme titration with NanoLuc luciferase (Example 9B). The following applies: substrate 100 uM; FIG. 2B. How it is done:
(§1) Renilla luciferase and NanoLuc Lucifersase were diluted to a concentration of 4 ug/ml (4 ng/uL) in OptiMEM+0.1% FBS. 10× serial dilutions of the luciferases were then prepared in OptiMEM+0.1% FBS. Each substrate was diluted to 100 uM into Renilla Glo Luciferase assay buffer (Promega Corporation). The 10× enzyme serial dilutions were then combined with the substrate dilutions, 50 ul mixed with 50 ul compound, and incubated for 1 minute at room temperature. Light output for each compound was measured on a GLOMAX®-Multi+ luminometer.

Experiment [2] addresses T2, Renilla luciferase (Renilla reniformis, UniProt P27652).
T2 sequence (P27652 1-311): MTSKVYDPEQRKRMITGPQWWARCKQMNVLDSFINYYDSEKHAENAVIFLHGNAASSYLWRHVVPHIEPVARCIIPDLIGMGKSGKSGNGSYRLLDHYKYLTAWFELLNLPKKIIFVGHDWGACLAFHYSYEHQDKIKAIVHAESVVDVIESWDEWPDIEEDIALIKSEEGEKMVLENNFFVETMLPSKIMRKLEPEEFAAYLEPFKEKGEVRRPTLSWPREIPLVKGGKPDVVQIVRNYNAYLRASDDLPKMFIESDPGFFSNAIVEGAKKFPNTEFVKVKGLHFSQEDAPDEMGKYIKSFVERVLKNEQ
Briefly: Enzyme titration with Renilla luciferase (Example 9B). Particulars: FIG. 2B. How it is done: as §1

Experiment [3] concerns the target T1, NANOLUC® Luciferase. Briefly: Spectral measurements in various buffers with NANOLUC luciferase (Example 10). The following applies: for High / Low / Peak / Width: emission spectrum. As for the experimental part:
Each compound to be screened was diluted to a concentration of 100 uM (50 uM final concentration) in Renilla Glo Luciferase Assay buffer (Promega Corporation), NANO-GLO Luciferase Assay Buffer (Promega Corporation), or 20 uM (10 uM final) in OptiMEM+0.1% FBS. NANOLUC® luciferase and Renilla luciferase were serially diluted to 4, 40, and 400 ng/ml in OptiMEM+0.1% FBS. 50 ul of each compound dilution was mixed with 50 ul enzyme dilution and incubated for 1 minute at room temperature. Autoluminescence spectra of AS-353 was measured by adding 20 uM of substrate to OptiMEM+20% FBS and then 50 ul of this dilution was combined with 50 ul of OptiMEM+0.1% FBS. Spectral measurements were measured using a Tecan M-1000 luminometer. ([…]).

T1 sequence (Q9GV45 28-196 with tags or gaps with the stated changes limits assumed): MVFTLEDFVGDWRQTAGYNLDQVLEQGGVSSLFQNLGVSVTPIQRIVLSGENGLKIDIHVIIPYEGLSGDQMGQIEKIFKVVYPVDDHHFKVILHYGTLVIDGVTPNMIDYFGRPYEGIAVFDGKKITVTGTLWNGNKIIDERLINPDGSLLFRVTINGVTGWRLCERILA

Turning to `N#Cc1ccc(-c2[nH]c(-c3ccc(O)cc3)cn3c(=O)c(Cc4ccco4)nc2-3)s1` [AS-353, 5-(2-(furan-2-ylmethyl)-6-(4-hydroxyphenyl)-3-oxo-3,7-dihydroimidazo[1,2-a]pyrazin-8-yl)thiophene-2-carbonitrile], the “lower RLU values with NanoLuc compared to AS-360” value in experiment [1] is recorded as around 100 ×. Also, the “enzyme dependent luminescence with Renilla Luciferase” value in experiment [2] is reported as “only at the highest enzyme concentration”. The “shift of the NanoLuc luciferase spectral properties” value in experiment [3] (FIGS. 3A-3C and 4A-4D) was “shifted the NanoLuc® luciferase spectral properties to red”. The “NanoGlo (spectral peak, Table 4)” value in experiment [3] (NanoLuc, NanoGlo buffer) worked out at 592. The “OptiMEM (spectral peak, Table 4)” value in experiment [3] (NanoLuc, OptiMEM) is recorded as 583. Further, in experiment [3] (NanoLuc, NanoGlo Buffer), the High turned out to be 652, the Low came out at 550, the Peak came to 592 and the Width was 102. For the same molecule, in experiment [3] (NanoLuc, OptiMEM + 0.1% FBS), the High is 637, the Low was 544, the Peak is listed as 583 and the Width was found to be 93.

The values are drawn from patent publication US10000500B2 (PROMEGA CORPORATION, priority 2016, dated 2018).
